Measured values as given in patent publication US10905683B2, “Compositions and uses of amidine derivatives” (BIOCRYST PHARMACEUTICALS, INC., priority 2014, dated 2021).
Converted amounts (≈) assume the structure as drawn. Read-outs that look alike come from different tables or passages of the source.

Tests used:
plasma kallikrein = biological target: T1, plasma kallikrein (Homo sapiens, UniProt P03952); test: Plasma kallikrein activity in subject samples, contact activation assay with fluorogenic substrate; assay type: in vivo
T1 construct: normal levels of C1INH present in healthy subject plasma samples; from tissue; host or cells: plasma samples of healthy human subjects
Description: Plasma kallikrein activity was assessed in subject samples with an exploratory contact activation assay using a fluorogenic artificial substrate for kallikrein. In this assay, the contact pathway is activated by addition of ellagic acid, and amidolytic activity is measured. Results are expressed as percent inhibition compared to subject baseline samples and reflect inhibition additional to that resulting from the activity of normal levels of C1INH present in healthy subject plasma samples. Analysis of plasma kallikrein activity following single doses of the compound of Example 1 was performed through 12 hours postdose. […] The time course of inhibition generally followed the plasma pharmacokinetics of the compound. The greatest effect was seen around the time of Cmax. Plasma kallikrein inhibition largely returned to baseline at 12 hours postdose, when plasma concentrations of the compound of Example 1 were low (generally <10 ng/mL).
Plasma kallikrein activity profiles were measured in Part 2 subjects on day 7 of dosing and the results were expressed as percent inhibition compared to the activity present in the Day 1 predose plasma sample. […] Kallikrein inhibition was observed through the last dosing interval on day 7 compared to placebo (p<0.0001).

[1] = Phase 1 Part 1, single ascending oral dose pharmacokinetics and food effect; assay type: in vivo, human; conditions: for Tmax: median
Description: A two-part, Phase 1, double-blind, placebo-controlled study of the compound of Example 1 was conducted in healthy subjects. Part 1 of the study assessed the safety, tolerability and the pharmacokinetic (PK) and pharmacodynamic (PD) properties of the compound of Example 1 following a single ascending dose. Subjects were enrolled in five sequential cohorts and received the compound of Example 1 (50 mg, 125 mg, 250 mg, 500 mg or 1000 mg; n=6/cohort) or placebo (n=2/cohort) under fasting conditions. To enable a food-effect assessment on exposure, subjects enrolled in Cohort 4 (500 mg or placebo) subsequently received a second dose of the compound of Example 1 following a high-fat breakfast.
A summary of the pharmacokinetic parameters for fasting, single oral doses of 50 to 1000 mg of the compound of Example 1 (Part 1) is presented in Table 16.
Compound concentrations then declined biphasically and were quantifiable through 9 hours postdose in Cohort 1 (50 mg) and 24 hours postdose in Cohorts 4 and 5 (500 and 1000 mg).

[2] = Further solubility studies in solvents, mixtures and surfactants; assay type: physicochemical; conditions: thermodynamic from solid
Description: The solubility of the compound of Example 1 in a range of organic solvents, mixtures thereof, and some including surfactants, was measured. […] solubility assays were performed by the sequential addition of the compound of Example 1 to an appropriate organic solvent while stirring vigorously until a precipitate is formed. The resulting suspension is then shaken for 24 hours at room temperature, filtered and the resulting solution was analyzed by appropriate analytical method. Quantitation was performed by comparison of the concentrations of the resulting solution of the compound 1 to a single point calibration curve using a solution of the reference standard. The results are shown in Table 8, in which all percentages are expressed by weight of the total weight of excipients, i.e. excluding the active and the following abbreviations are used: […]

[3] = Concentration achieved in formulations and excipient mixtures; assay type: physicochemical
Description: In initial formulation work for the amidine compounds described herein, in particular 3-[2-(4-carbamimidoyl-phenylcarbamoyl)-5-methoxy-4-vinyl-phenyl]-6-(cyclopropylmethyl-carbamoyl)-pyridine-2-carboxylic acid, extensive studies were carried out to identify a suitable mixture of excipients to produce the oral formulation described herein.
Specifically, a variety of approaches were taken to develop suitable oral formulations of 3-[2-(4-carbamimidoyl-phenylcarbamyl)-5-methoxy-4-vinyl-phenyl]-6-(cyclopropylmethyl-carbamoyl)-pyridine-2-carboxylic acid. The approaches taken included use of a variety of hydrophilic polymers, including α-cyclodextrin and a polyanionic 3-cyclodextrin derivative with a sodium sulfonate salt separated from the lipophilic cavity by a butyl ether or sulfobutylether spacer group in combination with a variety of co-solvents. In addition, the compound was evaluated in formulations created by a number of different technologies (such as dry blends, nanosuspensions, solid dispersion and emulsions) using a variety of approaches.

[4] = 50 mg single oral dose, fasting, GM
[5] = 125 mg single oral dose, fasting, GM
[6] = 250 mg single oral dose, fasting, GM
[7] = 500 mg single oral dose, FASTED, GM
[8] = human, plasma, po, 50 mg, 50 mg single oral dose, fasting, GM
[9] = human, plasma, po, 125 mg, 125 mg single oral dose, fasting, GM
[10] = human, plasma, po, 250 mg, 250 mg single oral dose, fasting, GM
[11] = human, plasma, po, 500 mg, 500 mg single oral dose, FASTED, GM
[12] = human, plasma, po, 500 mg, 500 mg single oral dose, FED (high-fat breakfast), GM
[13] = human, plasma, po, 1000 mg, 1000 mg single oral dose, fasting, GM

T1 sequence (P03952 391-638 limits assumed): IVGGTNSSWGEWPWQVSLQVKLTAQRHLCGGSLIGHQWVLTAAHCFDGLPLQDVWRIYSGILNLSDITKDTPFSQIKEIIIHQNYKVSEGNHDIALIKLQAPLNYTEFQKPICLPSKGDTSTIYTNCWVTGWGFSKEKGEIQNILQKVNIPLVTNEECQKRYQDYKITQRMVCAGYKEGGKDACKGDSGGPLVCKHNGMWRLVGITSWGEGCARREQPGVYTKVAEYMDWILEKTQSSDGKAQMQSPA
T1 sequence (P03952 20-390 partner limits assumed): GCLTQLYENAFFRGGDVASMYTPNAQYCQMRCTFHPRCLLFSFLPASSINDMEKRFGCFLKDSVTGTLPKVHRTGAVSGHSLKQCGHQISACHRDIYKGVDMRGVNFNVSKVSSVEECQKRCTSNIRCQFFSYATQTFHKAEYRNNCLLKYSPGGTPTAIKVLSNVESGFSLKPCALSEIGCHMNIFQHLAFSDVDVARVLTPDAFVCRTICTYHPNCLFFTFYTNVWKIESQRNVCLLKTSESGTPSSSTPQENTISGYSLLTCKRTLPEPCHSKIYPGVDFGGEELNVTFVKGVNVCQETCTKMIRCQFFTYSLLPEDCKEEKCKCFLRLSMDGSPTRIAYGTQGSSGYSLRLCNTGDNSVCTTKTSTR

For `C=Cc1cc(C(=O)Nc2ccc(C(=N)N)cc2)c(-c2ccc(C(=O)NCC3CC3)nc2C(=O)O)cc1OC` [Example 1, 3-[2-(4-carbamimidoyl-phenylcarbamoyl)-5-methoxy-4-vinyl-phenyl]-6-(cyclopropylmethyl-carbamoyl)-pyridine-2-carboxylic acid], the “Kallikrein inhibition compared to Day 1 predose” value (plasma kallikrein; beginning and end of the dosing interval on Day 7, two highest dose cohorts (400, 800 mg q8h), FIG. 11) was 30-40%, the “change of plasma kallikrein activity in comparison to placebo” value (plasma kallikrein; single doses of 50-250 mg) was “modest but real changes” and the “DN AUC0-inf” value [1, 4] was 1.94 ng·h/mL/mg. For the same compound, the “DN Cmax” value [1, 4] was 0.528 ng/mL/mg, the “DN AUC0-inf” value [1, 5] was 1.58 ng·h/mL/mg and the “DN Cmax” value [1, 5] was 0.432 ng/mL/mg. The “DN AUC0-inf” value [1, 6] was 1.41 ng·h/mL/mg, the “DN Cmax” value [1, 6] was 0.344 ng/mL/mg and the “reduction of AUCinf with food v. fasting” value ([1]; 500 mg single oral dose) was 23%. The “reduction of AUClast with food v. fasting” value ([1]; 500 mg single oral dose) was 20%, the “reduction of geometric mean Cmax after a high-fat breakfast v. fasting” value ([1]; 500 mg single oral dose) was 47% and the “DN AUC0-inf” value [1, 7] was 1.60 ng·h/mL/mg. The “DN Cmax” value [1, 7] was 0.311 ng/mL/mg, the “DN Cmax” value ([1]; 1000 mg single oral dose, fasting, GM) was 0.193 ng/mL/mg and the “DN AUC0-inf” value ([1]; 1000 mg single oral dose, fasting, GM, n = 5) was 0.983 ng·h/mL/mg. It also gave a half-life ([1]; human, plasma, oral, 50 mg, Cohort 1 (50 mg single dose), read-out: terminal half-life (converted)) of roughly 3 h, a half-life ([1]; human, plasma, oral, 500 mg, Cohort 4 (500 mg single dose), read-out: terminal half-life (converted)) of roughly 15 h and a concentration at 12 h ([1]; human, plasma, oral, single doses, read-out: plasma concentrations at 12 hours postdose) of less than 10 ng/mL. For the same compound, the AUC(0-inf) [1, 8] was 96.8 ng·h/mL, the AUC(0-t) [1, 8] was 89.6 ng·h/mL and the Cmax [1, 8] was 26.4 ng/mL. It also gave a half-life ([1]; human, plasma, po, 50 mg, 50 mg single oral dose, fasting, GM, read-out: t1/2 (converted)) of 2.98 h, a Tmax ([1]; human, plasma, po, 50 mg, 50 mg single oral dose, fasting) of 1 h and an AUC(0-inf) [1, 9] of 197 ng·h/mL. For the same compound, the AUC(0-t) [1, 9] was 188 ng·h/mL, the Cmax [1, 9] was 54 ng/mL and the half-life ([1]; human, plasma, po, 125 mg, 125 mg single oral dose, fasting, GM, read-out: t1/2 (converted)) was 4.66 h. The Tmax ([1]; human, plasma, po, 125 mg, 125 mg single oral dose, fasting) was 2 h, the AUC(0-inf) [1, 10] was 353 ng·h/mL and the AUC(0-t) [1, 10] was 336 ng·h/mL. The Cmax [1, 10] was 85.9 ng/mL, the half-life ([1]; human, plasma, po, 250 mg, 250 mg single oral dose, fasting, GM, read-out: t1/2 (converted)) was 6.5 h and the Tmax ([1]; human, plasma, po, 250 mg, 250 mg single oral dose, fasting) was 2 h. The AUC(0-inf) [1, 11] was 802 ng·h/mL, the AUC(0-t) [1, 11] was 760 ng·h/mL and the Cmax [1, 11] was 155 ng/mL. The half-life ([1]; human, plasma, po, 500 mg, 500 mg single oral dose, FASTED, GM, read-out: t1/2 (converted)) was 15.4 h, the Tmax ([1]; human, plasma, po, 500 mg, 500 mg single oral dose, FASTED) was 2 h and the AUC(0-t) [1, 12] was 586 ng·h/mL. The Cmax [1, 12] was 82.1 ng/mL, the AUC(0-inf) ([1]; human, plasma, po, 500 mg, 500 mg single oral dose, FED (high-fat breakfast), GM, n = 5) was 642 ng·h/mL and the half-life ([1]; human, plasma, po, 500 mg, 500 mg single oral dose, FED (high-fat breakfast), GM, n = 5, sampling to 96 hours, read-out: t1/2 (converted)) was 18.9 h. It also gave a Tmax ([1]; human, plasma, po, 500 mg, 500 mg single oral dose, FED (high-fat breakfast)) of 2.5 h, an AUC(0-t) [1, 13] of 981 ng·h/mL and a Cmax [1, 13] of 193 ng/mL. For the same compound, the AUC(0-inf) ([1]; human, plasma, po, 1000 mg, 1000 mg single oral dose, fasting, GM, n = 5) was 983 ng·h/mL, the half-life ([1]; human, plasma, po, 1000 mg, 1000 mg single oral dose, fasting, GM, n = 5, sampling to 96 hours, read-out: t1/2 (converted)) was 12.3 h and the Tmax ([1]; human, plasma, po, 1000 mg, 1000 mg single oral dose, fasting) was 2 h. The solubility at 24 h ([2]; 2.5% SLS in 97.5% PEG400, organic solvent or mixture, 2.5% SLS in 97.5% PEG400, read-out: Example 1 Solubility After 24 hrs) was 31.3 mg/mL (≈ 60.9 mM), the solubility at 24 h ([2]; 2.5% SLS in 97.5% PEG600, organic solvent or mixture, 2.5% SLS in 97.5% PEG600, read-out: Example 1 Solubility After 24 hrs) was 25.9 mg/mL (≈ 50.4 mM) and the solubility at 24 h ([2]; 2.5% SLS in 97.5% PG, organic solvent or mixture, 2.5% SLS in 97.5% PG, read-out: Example 1 Solubility After 24 hrs) was greater than 100 mg/mL. The solubility at 24 h ([2]; 2.5% SLS/8% EtOH/10% PG in 79.5% PEG600, organic solvent or mixture, 2.5% SLS/8% EtOH/10% PG in 79.5% PEG600, read-out: Example 1 Solubility After 24 hrs) was 57.3 mg/mL (≈ 112 mM), the solubility at 24 h ([2]; 6% EtOH/15% glycerin/79% water containing 0.3% Tween80, aqueous with cosolvent or surfactant or cyclodextrin, 6% EtOH/15% glycerin/79% water containing 0.3% Tween80, read-out: Example 1 Solubility After 24 hrs) was 0.3 mg/mL (≈ 0.584 mM) and the solubility at 24 h ([2]; 6% EtOH/15% glycerin/79% water, aqueous with cosolvent or surfactant or cyclodextrin, 6% EtOH/15% glycerin/79% water, read-out: Example 1 Solubility After 24 hrs) was 0.07 mg/mL (≈ 0.136 mM). The solubility at 24 h ([2]; 8% EtOH/10% PG in 82% PEG600, organic solvent or mixture, 8% EtOH/10% PG in 82% PEG600, read-out: Example 1 Solubility After 24 hrs) was 61 mg/mL (≈ 119 mM), the solubility at 24 h ([2]; 10% EtOH in 90% PEG400, organic solvent or mixture, 10% EtOH in 90% PEG400, read-out: Example 1 Solubility After 24 hrs) was 61.4 mg/mL (≈ 120 mM) and the solubility at 24 h ([2]; 10% EtOH in 90% PEG600, organic solvent or mixture, 10% EtOH in 90% PEG600, read-out: Example 1 Solubility After 24 hrs) was 61.4 mg/mL (≈ 120 mM). The solubility at 24 h ([2]; 10% EtOH with 90% PG, organic solvent or mixture, 10% EtOH with 90% PG, read-out: Example 1 Solubility After 24 hrs) was greater than 100 mg/mL, the solubility at 24 h ([2]; 20% PG in 80% PEG400, organic solvent or mixture, 20% PG in 80% PEG400, read-out: Example 1 Solubility After 24 hrs) was 52.9 mg/mL (≈ 103 mM) and the solubility at 24 h ([2]; 20% PG in 80% PEG600, organic solvent or mixture, 20% PG in 80% PEG600, read-out: Example 1 Solubility After 24 hrs) was 52.4 mg/mL (≈ 102 mM). The solubility at 24 h ([2]; PG/PEG mixtures, organic solvent or mixture, some PG/PEG mixtures, read-out: solubility) was 50 to 60 mg/mL (≈ 97.4 to 117 mM), the solubility at 24 h ([2]; mixtures of 90% or more propylene glycol, organic solvent or mixture, some mixtures composed of 90% or more propylene glycol, read-out: solubility) was greater than 100 mg/mL and the solubility at 24 h ([2]; propylene glycol, organic solvent or mixture, Propylene Glycol, read-out: Example 1 Solubility After 24 hrs) was greater than 150 mg/mL. For the same compound, the solubility at 24 h ([2]; propylene glycol, organic solvent or mixture, propylene glycol (PG), read-out: solubility) was 150 mg/mL (≈ 292 mM), the concentration dissolved ([3]; 1,2-propanediol, especially as part of a mixture of polar protic solvents) was “up to 140 mg/ml” and the concentration in formulation ([3]; initial formulations: cyclodextrins, co-solvents, dry blends, nanosuspensions, solid dispersion, emulsions) was “less than 10.5 mg/ml”. The concentration in formulation ([3]; novel excipient mixtures of the invention) was “at least 100 mg/ml” and the concentration dissolved ([3]; polyethylene glycol 600, especially as part of a mixture of polar protic solvents) was “up to 140 mg/ml”.
